Reference: PubChem BioAssay AID2060601 (Molecular Pharmacology Branch, DTP, NCI, 2025)

Tested on: 874868-142-R-J2-PDC complex spheroids, growth % test/control
Test: Anticancer human tumor 874868-142-R-J2-PDC patient-derived head and neck squamous carcinoma cell line growth inhibition [CLK]
Conditions: for IC50: curve of first compound; for viability, T/C: stronger effect = lower value
Outline: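 Patient-derived tumor cells grown as complex spheroids with HUVEC endothelial cells and mesenchymal stem cells, treated with drug combinations. Concentrations descend in half-log steps from near clinical Cmax, or from 10 microM if Cmax unknown.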

[1] = second compound 0.0316 µM, first compound 0.0316 µM
[2] = second compound 0.0316 µM, first compound 0.1 µM
[3] = second compound 0.0316 µM, first compound 0.316 µM
[4] = second compound 0.0316 µM, first compound 1 µM
[5] = second compound 0.0316 µM, first compound 3.16 µM
[6] = second compound 0.0316 µM, first compound 10 µM
[7] = second compound 0.1 µM, first compound 0.0316 µM
[8] = second compound 0.1 µM, first compound 0.1 µM
[9] = second compound 0.1 µM, first compound 0.316 µM
[10] = second compound 0.1 µM, first compound 1 µM
[11] = second compound 0.1 µM, first compound 3.16 µM
[12] = second compound 0.1 µM, first compound 10 µM
[13] = second compound 0.316 µM, first compound 0.0316 µM
[14] = second compound 0.316 µM, first compound 0.1 µM
[15] = second compound 0.316 µM, first compound 0.316 µM
[16] = second compound 0.316 µM, first compound 1 µM
[17] = second compound 0.316 µM, first compound 3.16 µM
[18] = second compound 0.316 µM, first compound 10 µM
[19] = second compound 1 µM, first compound 0.0316 µM
[20] = second compound 1 µM, first compound 0.1 µM
[21] = second compound 1 µM, first compound 0.316 µM
[22] = second compound 1 µM, first compound 1 µM
[23] = second compound 1 µM, first compound 3.16 µM
[24] = second compound 1 µM, first compound 10 µM
[25] = second compound 3.16 µM, first compound 0.0316 µM
[26] = second compound 3.16 µM, first compound 0.1 µM
[27] = second compound 3.16 µM, first compound 0.316 µM
[28] = second compound 3.16 µM, first compound 1 µM
[29] = second compound 3.16 µM, first compound 3.16 µM
[30] = second compound 3.16 µM, first compound 10 µM
[31] = second compound 10 µM, first compound 0.0316 µM
[32] = second compound 10 µM, first compound 0.1 µM
[33] = second compound 10 µM, first compound 0.316 µM
[34] = second compound 10 µM, first compound 1 µM
[35] = second compound 10 µM, first compound 3.16 µM
[36] = second compound 10 µM, first compound 10 µM
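Note: spheroids exposed to the compounds for 7 days.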
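Throughout, for viability, T/C: 100% = DMSO vehicle control viability.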

`CC1(C)CCC(CN2CCN(c3ccc(C(=O)NS(=O)(=O)c4ccc(NCC5CCOCC5)c([N+](=O)[O-])c4)c(Oc4cnc5[nH]ccc5c4)c3)CC2)=C(c2ccc(Cl)cc2)C1` + CN1CCN(c2cc(C(=O)Nc3cc4cc(-c5cnn(C)c5)ccc4cn3)ccn2)CC1 gave an IC50 (second compound 0.0316 µM) of over 10000 nM, an IC50 (second compound 0.1 µM) of over 10000 nM and an IC50 (second compound 0.316 µM) of under 31.6 nM. For the same compound, the IC50 (second compound 1 µM) was under 31.6 nM, the IC50 (second compound 3.16 µM) was under 31.6 nM and the IC50 (second compound 10 µM) was under 31.6 nM. It also gave a viability, T/C [1] of 72.6%, a viability, T/C [2] of 90.4% and a viability, T/C [3] of 69.6%. It also gave a viability, T/C [4] of 96.1%, a viability, T/C [5] of 76.6% and a viability, T/C [6] of 70%. For the same compound, the viability, T/C [7] was 77.6%, the viability, T/C [8] was 69.9% and the viability, T/C [9] was 67.1%. It also gave a viability, T/C [10] of 75.9%, a viability, T/C [11] of 47.2% and a viability, T/C [12] of 58.9%. The viability, T/C [13] was 20.8%, the viability, T/C [14] was 17.6% and the viability, T/C [15] was 17%. For the same compound, the viability, T/C [16] was 18.8%, the viability, T/C [17] was 12.8% and the viability, T/C [18] was 11.3%. It also gave a viability, T/C [19] of 0.46%, a viability, T/C [20] of 4.39% and a viability, T/C [21] of 0.38%. It also gave a viability, T/C [22] of 0.29%, a viability, T/C [23] of 0.25% and a viability, T/C [24] of 0.25%. The viability, T/C [25] was 0.23%, the viability, T/C [26] was 0.22% and the viability, T/C [27] was 0.22%. It also gave a viability, T/C [28] of 0.13%, a viability, T/C [29] of 0.22% and a viability, T/C [30] of 0.19%. The viability, T/C [31] was 0.13%, the viability, T/C [32] was 3.51% and the viability, T/C [33] was 1.25%. The viability, T/C [34] was 0.25%, the viability, T/C [35] was 0.17% and the viability, T/C [36] was 1.58%.

Work on `CC1COCCN1c1cc(C2(S(C)(=N)=O)CC2)nc(-c2ccnc3[nH]ccc23)n1` (stereo unspecified) + CN1CCN(c2cc(C(=O)Nc3cc4cc(-c5cnn(C)c5)ccc4cn3)ccn2)CC1 yielded an IC50 (second compound 0.0316 µM) of 1900 nM, an IC50 (second compound 0.1 µM) of 578 nM and an IC50 (second compound 0.316 µM) of under 31.6 nM. For the same compound, the IC50 (second compound 1 µM) was under 31.6 nM, the IC50 (second compound 3.16 µM) was under 31.6 nM and the IC50 (second compound 10 µM) was under 31.6 nM. The viability, T/C [1] was 87.7%, the viability, T/C [2] was 82.5% and the viability, T/C [3] was 71.3%. The viability, T/C [4] was 73.5%, the viability, T/C [5] was 31.2% and the viability, T/C [6] was 27.6%. For the same compound, the viability, T/C [7] was 68.9%, the viability, T/C [8] was 60.9% and the viability, T/C [9] was 59.3%. The viability, T/C [10] was 42%, the viability, T/C [11] was 20.8% and the viability, T/C [12] was 20.9%. The viability, T/C [13] was 16.6%, the viability, T/C [14] was 19.8% and the viability, T/C [15] was 18.4%. For the same compound, the viability, T/C [16] was 10.8%, the viability, T/C [17] was 13.7% and the viability, T/C [18] was 7.51%. The viability, T/C [19] was 0.41%, the viability, T/C [20] was 0.3% and the viability, T/C [21] was 0.49%. For the same compound, the viability, T/C [22] was 0.28%, the viability, T/C [23] was 0.29% and the viability, T/C [24] was 0.24%. The viability, T/C [25] was 0.19%, the viability, T/C [26] was 0.25% and the viability, T/C [27] was 0.22%. For the same compound, the viability, T/C [28] was 0.29%, the viability, T/C [29] was 1.32% and the viability, T/C [30] was 0.36%. For the same compound, the viability, T/C [31] was 5.76%, the viability, T/C [32] was 0.21% and the viability, T/C [33] was 1.83%. For the same compound, the viability, T/C [34] was 0.21%, the viability, T/C [35] was 0.21% and the viability, T/C [36] was 0.23%.

Work on `NC(=O)C(=Cn1cnc(-c2cc(C(F)(F)F)cc(C(F)(F)F)c2)n1)c1cncnc1` + CN1CCN(c2cc(C(=O)Nc3cc4cc(-c5cnn(C)c5)ccc4cn3)ccn2)CC1 yielded an IC50 (second compound 0.0316 µM) of 51.3 nM, an IC50 (second compound 0.1 µM) of under 9.49 nM and an IC50 (second compound 0.316 µM) of under 9.49 nM. For the same compound, the IC50 (second compound 1 µM) was under 9.49 nM, the IC50 (second compound 3.16 µM) was under 9.49 nM and the IC50 (second compound 10 µM) was under 9.49 nM. It also gave a viability, T/C (second compound 0.0316 µM, first compound 0.00949 µM) of 69.8%, a viability, T/C (second compound 0.0316 µM, first compound 0.03 µM) of 62.5% and a viability, T/C (second compound 0.0316 µM, first compound 0.0949 µM) of 35.4%. The viability, T/C (second compound 0.0316 µM, first compound 0.3 µM) was 20.1%, the viability, T/C (second compound 0.0316 µM, first compound 0.949 µM) was 1.73% and the viability, T/C (second compound 0.0316 µM, first compound 3 µM) was 2.54%. It also gave a viability, T/C (second compound 0.1 µM, first compound 0.00949 µM) of 50%, a viability, T/C (second compound 0.1 µM, first compound 0.03 µM) of 44.8% and a viability, T/C (second compound 0.1 µM, first compound 0.0949 µM) of 25.2%. It also gave a viability, T/C (second compound 0.1 µM, first compound 0.3 µM) of 3.61%, a viability, T/C (second compound 0.1 µM, first compound 0.949 µM) of 0.81% and a viability, T/C (second compound 0.1 µM, first compound 3 µM) of 0.34%. The viability, T/C (second compound 0.316 µM, first compound 0.00949 µM) was 14%, the viability, T/C (second compound 0.316 µM, first compound 0.03 µM) was 5.04% and the viability, T/C (second compound 0.316 µM, first compound 0.0949 µM) was 0.53%. For the same compound, the viability, T/C (second compound 0.316 µM, first compound 0.3 µM) was 0.23%, the viability, T/C (second compound 0.316 µM, first compound 0.949 µM) was 0.23% and the viability, T/C (second compound 0.316 µM, first compound 3 µM) was 0.1%. The viability, T/C (second compound 1 µM, first compound 0.00949 µM) was 0.37%, the viability, T/C (second compound 1 µM, first compound 0.03 µM) was 0.25% and the viability, T/C (second compound 1 µM, first compound 0.0949 µM) was 0.32%. The viability, T/C (second compound 1 µM, first compound 0.3 µM) was 0.28%, the viability, T/C (second compound 1 µM, first compound 0.949 µM) was 0.22% and the viability, T/C (second compound 1 µM, first compound 3 µM) was 1.66%. It also gave a viability, T/C (second compound 3.16 µM, first compound 0.00949 µM) of 0.39%, a viability, T/C (second compound 3.16 µM, first compound 0.03 µM) of 0.31% and a viability, T/C (second compound 3.16 µM, first compound 0.0949 µM) of 0.46%. It also gave a viability, T/C (second compound 3.16 µM, first compound 0.3 µM) of 0.38%, a viability, T/C (second compound 3.16 µM, first compound 0.949 µM) of 0.19% and a viability, T/C (second compound 3.16 µM, first compound 3 µM) of 0.14%. It also gave a viability, T/C (second compound 10 µM, first compound 0.00949 µM) of 0.14%, a viability, T/C (second compound 10 µM, first compound 0.03 µM) of 0.14% and a viability, T/C (second compound 10 µM, first compound 0.0949 µM) of 3.64%. For the same compound, the viability, T/C (second compound 10 µM, first compound 0.3 µM) was 0.17%, the viability, T/C (second compound 10 µM, first compound 0.949 µM) was 0.24% and the viability, T/C (second compound 10 µM, first compound 3 µM) was 0.2%.
